Laboratory results as given in ChEMBL document CHEMBL6120988, “Mitochondria-targeting artesunate-rhein conjugates: Linker-modulated cell-permeability, heme-affinity and anticancer activity” (Eur J Med Chem, 2025).
Activity calls are given as the source filed them. The rule behind the calls is not given here.

Experiments:
[1] = test system: 4T1; experiment: Cytotoxicty against mouse 4T1 cells assessed as cell viability by MTT assay; format: functional, cell-based
[2] = test system: A549; experiment: Cytotoxicity against human A549 cells assessed as cell viability by MTT assay; format: functional, cell-based
[3] = test system: HeLa; experiment: Cytotoxicity against human Hela cells assessed as cell viability by MTT assay; format: functional, cell-based
[4] = test system: U-87 MG; experiment: Cytotoxicity against human U87 cells assessed as cell viability by MTT assay; format: functional, cell-based, U-87MG ATCC
[5] = test system: 4T1; experiment: Induction of apoptosis in mouse 4T1 cells assessed as viable cells by Annexin V-FITC and PI staining based flow cytometry analysis (reference value: 96.2 %); format: functional
[6] = test system: 4T1; experiment: Induction of apoptosis in mouse 4T1 cells assessed as necrotic cells by Annexin V-FITC and PI staining based flow cytometry analysis (reference value: 0.085 %); format: functional
[7] = test system: 4T1; experiment: Induction of mitochondrial dysfunction in mouse 4T1 cells assessed as basal respiration; format: functional, cell-based
[8] = test system: Mitochondrial membrane; experiment: Induction of mitochondrial membrane potential loss in mouse 4T1 cells assessed as increase in green fluorescence by JC-1 staining based flow cytometric analysis (reference value: 7.4 %); format: cell membranes
[9] = test system: 4T1; experiment: Induction of ROS production in mouse 4T1 cells assessed as increase in intracellular ROS level by […] staining based flow cytometry (reference value: 7.8%); format: functional
[10] = Toxicity in female BALB/c mouse allografted with mouse 4T1 cells assessed as change in body weight at 100 mg/kg, po administrated every day for 15 times and measured every 2 days for 22 days relative to control; format: organism-based; settings: in vivo, 528 h, time 22 day
[11] = Toxicity in female BALB/c mouse allografted with mouse 4T1 cells assessed as change in body weight at 10 mg/kg, iv administrated every 3 day for 5 times and measured every 2 days for 22 days relative to control; format: organism-based; settings: in vivo, 528 h, time 22 day
[12] = Toxicity in female BALB/c mouse allografted with mouse 4T1 cells assessed as survival rate at 10 mg/kg, iv administrated every 3 day for 5 times and measured after 22 days relative to control; format: organism-based; settings: in vivo, 528 h, time 22 day
[13] = Toxicity in female BALB/c mouse allografted with mouse 4T1 cells assessed as survival rate at 100 mg/kg, po administrated every day for 15 times and measured after 22 days relative to control; format: organism-based; settings: in vivo, 528 h, time 22 day
[14] = Toxicity in female BALB/c mouse allografted with mouse 4T1 cells assessed as effect on blood platelet at 10 mg/kg, iv administrated every 3 days for 5 times and measured after 22 days; format: organism-based; settings: in vivo, 528 h, time 22 day
[15] = test system: 4T1; experiment: Antitumor activity against mouse 4T1 cells allografted in female BALB/c mouse assessed as reduction in tumor tissue weight at 10 mg/kg, iv administrated every 3 day for 5 times and measured after for 22 days; format: functional, organism-based; settings: time 22.0 day
[16] = Toxicity against female BALB/c mouse allografted with mouse 4T1 cells assessed as effect on red blood cells at 100 mg/kg, po administrated every day for 15 times and measured after 22 days; format: organism-based; settings: in vivo, 528 h, time 22 day
[17] = Toxicity against female BALB/c mouse allografted with mouse 4T1 cells assessed as effect on white blood cells at 10 mg/kg, iv administrated every 3 days for 5 times and measured after 22 days; format: organism-based; settings: in vivo, 528 h, time 22 day
[18] = test system: 4T1; experiment: Antitumor activity against mouse 4T1 cells allografted in female BALB/c mouse assessed as disappearance of cancer cells at 100 mg/kg, po administrated every day for 15 times and measured after 22 days by H and E staining based analysis; format: functional, organism-based; settings: time 22.0 day
[19] = Toxicity against female BALB/c mouse allografted with mouse 4T1 cells assessed as mean corpuscular volume at 10 mg/kg, iv administrated every 3 days for 5 times and measured after 22 days; format: organism-based; settings: in vivo, 528 h, time 22 day
[20] = Toxicity against female BALB/c mouse allografted with mouse 4T1 cells assessed as mean corpuscular hemoglobin concentration at 100 mg/kg, po administrated every day for 15 times and measured after 22 days; format: organism-based; settings: in vivo, 528 h, time 22 day
[21] = Toxicity against female BALB/c mouse allografted with mouse 4T1 cells assessed as hemoglobin at 10 mg/kg, iv administrated every 3 days for 5 times and measured after 22 days; format: organism-based; settings: in vivo, 528 h, time 22 day
[22] = test system: 4T1; experiment: Antitumor activity against mouse 4T1 cells allografted in female BALB/c mouse assessed as inhibition of cell proliferation at 10 mg/kg, iv administrated every 3 day for 5 times and measured after 22 days by PCNA assay; format: functional, organism-based; settings: time 22.0 day
[23] = test system: 4T1; experiment: Induction of immunogenic cell death in mouse 4T1 cells assessed as increase in CRT exposure on cell surface by measuring increase in red fluorescence by CLSM analysis (reference value: 2.55%); format: functional
[24] = test system: 4T1; experiment: Immunostimulatory activity in mouse 4T1 cells implanted in female BALB/c mouse assessed as increase in immunostimulatory CD86+ expression; format: functional, cell-based
[25] = test system: 4T1; experiment: Induction of immunogenic cell death in mouse 4T1 cells allografted in female BALB/c mouse assessed as increase in CD80+ CD86+CD11c+ cells DC maturation at 10 mg/kg, iv administrated every 3 days for 5 times and measured after 22 days by flow cytometry (reference value: 7.77 %); format: functional; settings: time 22 day
[26] = test system: 4T1; experiment: Antitumor activity against mouse 4T1 cells allografted in female BALB/c mouse assessed as increase in infiltration of CD44+CD62L- lymphocytes in tumors at 100 mg/kg, po administrated every day for 15 times and measured after 22 days by flow cytometry (reference value: 5.5%); format: functional; settings: time 22 day
[27] = Half life in mouse at 100 mg/kg, po; format: ADME, organism-based; settings: in vivo
[28] = Half life in mouse iv dosed mouse; format: ADME, organism-based; settings: in vivo
[29] = AUC(0 to t) in mouse iv dosed mouse; format: ADME, organism-based; settings: in vivo, dose 10 mg/kg, time 3 day
[30] = Tmax in mouse at 100 mg/kg, po; format: ADME, organism-based; settings: in vivo
[31] = Tmax in mouse iv dosed mouse; format: ADME, organism-based; settings: in vivo
[32] = MRT (0 to infinity) in iv dosed mouse; format: ADME, organism-based; settings: in vivo
[33] = Oral bioavailability in mouse at 100 mg/kg; format: ADME, organism-based; settings: in vivo
[34] = test system: 4T1; experiment: Potency index, ratio of paclitaxel IC50 to test compound IC50 for cytotoxicity against mouse 4T1 cells assessed as cell viability by MTT assay; format: functional
[35] = test system: 4T1; experiment: Induction of mitochondrial dysfunction in mouse 4T1 cells assessed as maximum respiration; format: functional, cell-based
[36] = test system: 4T1; experiment: Induction of immunogenic cell death in mouse 4T1 cells assessed as increase in ATP release by measuring increase in red fluorescence by CLSM analysis relative to R/A group; format: functional, cell-based
[37] = test system: 4T1; experiment: Antitumor activity against mouse 4T1 cells allografted in female BALB/c mouse assessed as increase in infiltration of CD44+CD62L- lymphocytes in tumors at 10 mg/kg, iv administrated every day for 15 times and measured after 22 days by flow cytometry (reference value: 5.17%); format: functional; settings: time 22 day

Structure (SMILES): C[C@H]1[C@H](OC(=O)CCC(=O)OCCCCOC(=O)c2cc(O)c3c(c2)C(=O)c2cccc(O)c2C3=O)O[C@@H]2O[C@@]3(C)CC[C@H]4[C@H](C)CC[C@@H]1[C@@]24OO3
- IC50 [1]: 1130 nM
- IC50 [2]: 2790 nM
- IC50 [3]: 2430 nM
- IC50 [4]: 2140 nM
- Activity [5]: 35.5%
- Activity [6]: 0.27%
- Activity [7]: Active
- Activity [8]: 45.6%
- Activity [9]: 42.5%
- Activity [10]: Non-toxic
- Activity [11]: Non-toxic
- Survival [12]: <= 39 day
- Survival [13]: <= 39 day
- Activity [14]: Non-toxic
- Activity [15]: Active; Tumor Lighter Weight Than Pbs Treatment
- Activity [16]: Non-toxic
- Activity [17]: Non-toxic
- Activity [18]: Active
- Activity [19]: Non-toxic
- Activity [20]: Non-toxic
- Activity [21]: Non-toxic
- Activity [22]: Active
- Activity [23]: Active
- Activity ([23]; record 2): 32.82%
- Activity [24]: Active
- Activity [25]: 20%
- Activity [26]: 17.2%
- half-life [27]: 5.15 h
- half-life [28]: 7.01 h
- AUC(0-t) at 72 h [29]: 11500 ng·h/mL
- Tmax [30]: 3 h
- Tmax [31]: 0.17 h
- MRT inf [32]: 7.67 h
- bioavailability [33]: 15.8%
- Ratio IC50 [34]: 3
- Activity [35]: Active
- Activity [36]: Active
- Activity [37]: 14.4%
